Patent US20260250290A1 (BRISTOL-MYERS SQUIBB COMPANY, priority 2023, published 2026)

What follows are compounds tested against T1, full length SGK1 (Homo sapiens, UniProt O00141) (assay: SGK1 inhibition Assay A (Caliper LabChip electrophoretic separation of fluorescent peptide substrate and phosphorylated product)). Details: Assay A; 20 μM ATP, 40 min incubation; read-out: SGK1 IC50.
T1 construct: 125 μM full length SGK1 (Life Technologies Part #PR7358A); purchased Life Technologies PR7358A
T1 sequence (O00141 1-431): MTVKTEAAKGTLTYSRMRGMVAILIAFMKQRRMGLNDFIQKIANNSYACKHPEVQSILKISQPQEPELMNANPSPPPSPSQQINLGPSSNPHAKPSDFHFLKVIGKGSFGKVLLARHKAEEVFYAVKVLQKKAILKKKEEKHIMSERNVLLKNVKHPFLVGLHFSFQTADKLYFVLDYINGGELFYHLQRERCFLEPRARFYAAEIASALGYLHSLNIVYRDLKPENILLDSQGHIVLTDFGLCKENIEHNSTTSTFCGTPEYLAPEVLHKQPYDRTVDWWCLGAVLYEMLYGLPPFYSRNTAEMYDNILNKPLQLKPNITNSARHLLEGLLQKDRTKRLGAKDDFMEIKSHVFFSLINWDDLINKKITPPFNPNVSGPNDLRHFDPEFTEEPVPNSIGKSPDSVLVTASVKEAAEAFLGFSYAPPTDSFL
Format: biochemical

Compound	IC50 [nM]
Nc1ncnn2c(C3=CCN(CC(=O)O)C3)cc(N3CCC[C@@H](NC(=O)c4ccc(Cl)s4)C3)c12 [Example 912, (R)-2-(3-(4-amino-5-(3-(5-chlorothiophene-2-carboxamido)piperidin-1-yl)pyrrolo[2,1-f][1,2,4]triazin-7-yl)-2,5-dihydro-1H-pyrrol-1-yl)acetic acid]	214
NC(=O)N1CC=C(c2cc(N3CCC[C@@H](NC(=O)c4ccc(Cl)s4)C3)c3c(N)ncnn23)C1 [Example 913, (R)-3-(4-amino-5-(3-(5-chlorothiophene-2-carboxamido)piperidin-1-yl)pyrrolo[2,1-f][1,2,4]triazin-7-yl)-2,5-dihydro-1H-pyrrole-1-carboxamide]	3
CC(=O)NCC(=O)N1CC=C(c2cc(N3CCC[C@@H](NC(=O)c4ccc(Cl)s4)C3)c3c(N)ncnn23)C1 [Example 914, (R)—N-(1-(7-(1-(acetylglycyl)-2,5-dihydro-1H-pyrrol-3-yl)-4-aminopyrrolo[2,1-f][1,2,4]triazin-5-yl)piperidin-3-yl)-5-chlorothiophene-2-carboxamide]	3
CC(=O)NCCC(=O)N1CC=C(c2cc(N3CCC[C@@H](NC(=O)c4ccc(Cl)s4)C3)c3c(N)ncnn23)C1 [Example 915, (R)—N-(1-(7-(1-(3-acetamidopropanoyl)-2,5-dihydro-1H-pyrrol-3-yl)-4-aminopyrrolo[2,1-f][1,2,4]triazin-5-yl)piperidin-3-yl)-5-chlorothiophene-2-carboxamide]	10
CC(=O)N1CC=C(c2cc(N3CCCC(NC(=O)c4sc(C(F)F)cc4OC4CCN(C(C)C)CC4)C3)c3c(N)ncnn23)C1 (stereo not drawn) [compound 442]	14
(R)-2-(1-(7-(1-acetyl-2,5- dihydro-1H-pyrrol-3-yl)- 4-aminopyrrolo[2,1- f][1,2,4]triazin-5- yl)piperidin-3-yl)-1,1,3,3- tetramethylguanidine [Example 724]	15
(R)-3-(4-amino-5-(3-(pyrazine-2-carboxamido)piperidin-1-yl)pyrrolo[2,1-f][1,2,4]triazin-7-yl)-2,5-dihydro-1H-pyrrole-1-carboxylate [Example 540]	216
(R)-N-(1-(4-amino-7-12-(2-hydroxypropan-2-yl)pyrimidin-5-yl)pyrrolo[2,1-f][1,2,4]triazin-5-yl)piperidin-3-yl)-5-(difluoromethyl)thiophene-2-carboxamide [Example 519]	1050
(R)-N-(1-(4-amino-7-(1-(2,2-difluoroethyl)-6-oxo-1,6-dihydropyridin-3-yl)pyrrolo[2,1-f][1,2,4]triazin-5-yl)piperidin-3-yl)-5-chlorothiophene-2-carboxamide [Example 520]	3
(R)-N-(1-(4-amino-7-(1-(isoxazole-3-carbonyl)-2,5-dihydro-1H-pyrrol-3-yl)pyrrolo[2,1-f|[1,2,4]triazin-5-yl)piperidin-3-y1)-5-chloro-3-(2-(dimethylamino)ethoxy)thiophene-2-carboxamide [Example 906]	1
(R)-N-(1-(4-amino-7-(1-ethyl-1H-pyrazol-5-yl)pyrrolo[2,1-f][1,2,4]triazin-5-yl)piperidin-3-yl)-6-(4-methylpiperazin-1-yl)picolinamide [Example 790]	30
(R)-N-(1-(7-(1-acetyl-2,5-dihydro-1H-pyrrol-3-yl)-4-aminopyrrolo[2,1-f][1,2,4]triazin-5-yl)piperidin-3-yl)-5-chloro-3-(piperidin-4-yloxy)thiophene-2-carboxamide [Example 575]	1
Methyl (R)-3-(4-amino-5-(3- (5-(difluoromethyl)-3- morpholinothiophene-2- carboxamido)piperidin-1- yl)pyrrolo[2,1-f][1,2,4]triazin- 7-yl)-2,5-dihydro-1H-pyrrole- 1-carboxylate [Example 320]	25
methyl 3-(4-amino-5-((3R)-3-(5-chloro-3-((2-methylpiperidin-4-yl)oxy)thiophene-2-carboxamido)piperidin-1-yl)pyrrolo[2,1-f][1,2,4]triazin-7-yl)-2,5-dihydro-1H-pyrrole-1-carboxylate [Example 621]	6
methyl (R)-3-(4-amino-5-(3-(6-(4-methylpiperazin-1-yl)picolinamido)piperidin-1-yl)pyrrolo[2,1-f][1,2,4]triazin-7-yl)-2,5-dihydro-1H-pyrrole-1-carboxylate [Example 789]	17
tert-butyl (R)-3- ((2-((1-(4-amino- 7-(6-cyanopyridin-3- yl)pyrrolo[2,1-f] [1,2,4]triazin-5- yl)piperidin-3- yl)carbamoyl) benzo[b]thiophen- 3-yl)oxy)azetidine- 1-carboxylate [Example 672]	65

What follows are compounds tested against T2, SGK1 (Homo sapiens, UniProt O00141) (assay: SGK1 inhibition Assay B (Echo mass spectrometry of phosphorylated peptide product)). Details: 60 min at room temperature.
T2 sequence (O00141 1-431): T1 sequence (O00141 1-431)
Format: biochemical

Compound	IC50 [nM]
CC(=O)N1CC=C(c2cc(N3CCC[C@@H](NC(=O)[C@]45CCC[C@H]4C5)C3)c3c(N)ncnn23)C1 (mixture of isomers) [Example 916, (cis)-N-[(3R)-1-[7-(1-acetyl-2,5-dihydro-1H-pyrrol-3-yl)-4-aminopyrrolo[2,1-f][1,2,4]triazin-5-yl]piperidin-3-yl]bicyclo[3.1.0]hexane-1-carboxamide]	56
Cc1nc(OC2CCC(NC3CC3)CC2)c(C(=O)N[C@@H]2CCCN(c3cc(-c4ccc(C(N)=O)c(F)c4)n4ncnc(N)c34)C2)s1 (single isomer, unassigned) [Example 941]	1
Cc1nc(OC2CCC(N3CCC3)CC2)c(C(=O)N[C@@H]2CCCN(c3cc(-c4ccc(C(N)=O)c(F)c4)n4ncnc(N)c34)C2)s1 (single isomer, unassigned) [Example 943]	2
CCN1CCC(Oc2nc(C)sc2C(=O)N[C@@H]2CCCN(c3cc(C4=CCN(C(C)=O)C4)n4ncnc(N)c34)C2)CC1(C)C (single isomer, unassigned) [Example 946]	12
CC(=O)N1CC=C(c2cc(N3CCC[C@@H](NC(=O)c4sc(Cl)cc4OC4CCN(C)C(C)(C)C4)C3)c3c(N)ncnn23)C1 (single isomer, unassigned) [Example 948]	2
Cc1nc(OC2CC3CC2CN3C(C)C)c(C(=O)N[C@@H]2CCCN(c3cc(-c4ccc(-n5cnnn5)c(F)c4)n4ncnc(N)c34)C2)s1 (single isomer, unassigned) [Example 949]	0.8
CC(=O)N1CC=C(c2cc(N3CCC[C@@H](NC(=O)c4sc(Cl)cc4OC4CC5CC(C4)N(C)C5)C3)c3c(N)ncnn23)C1 (single isomer, unassigned) [Example 952]	7
COC(=O)N1CC=C(c2cc(N3CCC[C@@H](NC(=O)c4sc(C)nc4OC4CC5CC(C4)N(C(C)C)C5)C3)c3c(N)ncnn23)C1 (single isomer, unassigned) [Example 953]	7
Cc1nc(OC2COC3(CCNCC3)C2)c(C(=O)N[C@@H]2CCCN(c3cc(-c4ccc(C(N)=O)c(F)c4)n4ncnc(N)c34)C2)s1 (single isomer, unassigned) [Example 954]	4
Cc1nc(OC2CC3CCC2CN3C)c(C(=O)N[C@@H]2CCCN(c3cc(-c4ccc(-n5cnnn5)nc4)n4ncnc(N)c34)C2)s1 (single isomer, unassigned) [Example 992]	10
Cc1nc(OC2CC3CCC2CN3CCO)c(C(=O)N[C@@H]2CCCN(c3cc(-c4cnc(C#N)c(F)c4)n4ncnc(N)c34)C2)s1 (single isomer, unassigned) [Example 993]	2
